Source: paper PMC9597486, “Screening of protonstatin-1 (PS-1) analogs for improved inhibitors of plant plasma membrane H^+-ATPase activity” (Frontiers in Plant Science, 2022)

Target: T1, AHA2 central loop (recombinant His-AHA2 central loop) (Arabidopsis thaliana, UniProt P19456)
T1 construct: cytosolic central loop domain only, His-tagged recombinant, fluorescently labelled with NanoTemper RED protein labelling kit
T1 sequence (P19456 292-643 limits assumed): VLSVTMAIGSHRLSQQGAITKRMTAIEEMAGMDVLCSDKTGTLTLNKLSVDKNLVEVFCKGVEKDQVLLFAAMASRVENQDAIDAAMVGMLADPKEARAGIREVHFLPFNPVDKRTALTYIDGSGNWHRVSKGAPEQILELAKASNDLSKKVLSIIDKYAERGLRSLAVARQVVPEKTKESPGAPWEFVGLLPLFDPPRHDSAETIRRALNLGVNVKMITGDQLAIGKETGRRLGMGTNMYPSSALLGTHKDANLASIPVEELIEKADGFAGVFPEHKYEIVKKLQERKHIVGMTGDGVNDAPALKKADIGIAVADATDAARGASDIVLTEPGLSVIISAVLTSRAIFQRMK
Assay: microscale thermophoresis
Type: binding

| SMILES | Kd |
| --- | --- |
| O=C1NC(=S)S/C1=C\c1ccco1 [PS-1, (Z)-5-(furan-2-ylmethylene)-2-thioxothiazolidin-4-one] | 4880 ± 660 nM |
| O=C1NC(=S)S/C1=C\c1ccc[nH]1 [compound 27, (Z)-5-((1H-pyrrol-2-yl)methylene)-2-thioxothiazolidin-4-one] | 550 ± 50 nM |
